Measurements published in publication PMC3523740 (Chemistry & biodiversity, 2012).
Read-outs that look alike come from different tables or passages of the source.

Experiments:
NP2(D1A) [1] = settings: read-out: Kd^Hm (nM) at pH 5.5; cited from earlier work
(M0)NP2 [2] = settings: read-out: Kd^Hm (nM) at pH 7.5; cited from earlier work
(M0)NP2 [3] = settings: read-out: Kd^Hm (nM) at pH 5.5; cited from earlier work
NP2(D1A) [4] = settings: read-out: Kd^Hm (nM) at pH 7.5; cited from earlier work
[5] = Nitric oxide dissociation constant of the Fe; format: binding; settings: pH 5.0, 27 °C
[6] = read-out: Kd^NO at pH 7.5, nitric oxide; cited from earlier work
[7] = Kinetics of nitric oxide release; format: binding
[8] = histamine, cited from earlier work
[9] = Stopped-flow kinetics of histamine binding and release; settings: pH 5.5, calculated from Kd = koff/kon

Row | Molecule | Kd (NP2(D1A) [1]) [nM] | Kd ((M0)NP2 [2]) [nM] | Kd ((M0)NP2 [3]) [nM] | Kd (NP2(D1A) [4]) [nM] | Kd^NO at pH 5.0 [5] | Kd [6] [µM] | kon^NO at pH 5.0 ([7]; pH 5.0, 27 °C) | koff^NO at pH 5.0 ([7]; pH 5.0, 27 °C, displacement by histamine, this work) | koff^NO at pH 7.5 ([7]; pH 7.5, 27 °C, displacement by histamine, this work) | kon^NO at pH 7.5 ([7]; pH 7.5, calculated from Kd = koff/kon) | koff^Hm at pH 5.5 ([8]; pH 5.5) | koff^Hm at pH 7.5 ([8]; pH 7.5) | kon^Hm at pH 7.5 ([8]; pH 7.5) | kon^Hm at pH 5.5 [9]
2 | (M0)NP2: Recombinant nitrophorin 2 expressed in E. coli retaining methionine-0 from the start codon (N-terminus MDC…) |  |  |  |  | Too small to meas. | 0.005 ± 0.001 | Too large to meas. | 0.049 ± 0.002 ^TW s^−1 | 0.161 ± 0.005 ^TW s^−1 | 32.3 ± 6.5 ^a μM^−1s^−1 | 0.163 ± 0.011 ^b s^−1 | 0.056 ± 0.003 ^b s^−1 | 4.5 ± 0.1 ^b μM^−1s^−1 | 0.7 ± 0.1 ^a μM^−1s^−1
